Source: ChEMBL document CHEMBL1156506, “Changes to the HIV long terminal repeat and to HIV integrase differentially impact HIV integrase assembly, activity, and the binding of strand transfer inhibitors” (J Biol Chem, 2007)

Assays:
[1] = system: Human immunodeficiency virus type 1 integrase (Human immunodeficiency virus 1), Q7ZJM1 [Q148R]; test: Inhibition of HIV recombinant integrase Q148R mutant assessed as strand transfer activity using U5 INTCA LTR by scintillation proximity assay relative to wild type LTR; parameters: scale not given: the % may be the effect or the level left; settings: tested as the 3H-labelled form
[2] = system: Human immunodeficiency virus; test: Binding affinity to HIV wild type integrase using U5 GdC LTR relative to wild type LTR; settings: tested as the 3H-labelled form

For `Cn1c(N2CCCCS2(=O)=O)nc(C(=O)NCc2ccc(F)cc2)c(O)c1=O` [BMS-707035], the Activity [1] was 0.6% and the Activity [2] was 36%.
